Test results published in patent publication US8560243B2, “Methods for determining therapeutic index from gene expression profiles” (Microsoft Corporation, priority 1998, dated 2013).

What was measured:
[1] = tested on: off-target genes; assay: Transcriptional response to FK506 titration in yeast strain with CNA1 and CNA2 deleted; assay type: cell-based, S. cerevisiae
Source text: The response of those genes to FK506 were considered as off-target activity. Each ORF (Open Reading Frame) may be corresponding to an off-target gene.

[2] = tested on: calcineurin pathway
Source text: In this example, the expression of a number of genes are monitored as a wild type yeast culture is subjected to a graded levels of the drug FK506 (FIG. 8A). Similar experiments are repeated with a yeast culture whose CNA1 and CNA2 genes are deleted (FIG. 8B). CNA1 and CNA2 are two components of the calcineurin multi-protein complex. Because the drug FK506 acts upon the calcineurin protein to exert its activity on the calcineurin pathway. Deletion of CNA1 and CNA2 eliminates the primary target pathway for FK506. […]
Control cultures were treated with the same volume of just ethanol. Growth was monitored by OD600 and cells were harvested at OD600=1.4+/−0.1 by centrifugation for 2 min at ambient temperature in a Sorvall RC5C+ centrifuge in a SLA-1500 rotor. […]
Extent of hybridization was determined by scanning with a prototype multi-frame CCD camera slides produced by Applied Precision, Inc. Images were processed by informatics and imported into the Inpharna database and analyzed using the MatLab data analysis package.
The horizontal axis is concentrations of the FK506 in logarithmic scale and the vertical axis is the values of the logarithm of the expression ratio of the genes most affected by FK506 on the vertical axis. […] P-Value is the probability that the up or down regulation is due to measurement error, as determined from observed statistics of the errors in Log 10 (expression ratio).

[3] = tested on: yeast gene YOL031C; assay: Yeast gene expression response to methotrexate exposure, Hill function fit; assay type: cell-based, S. cerevisiae; conditions: least squares fit
Source text: FIG. 4 illustrates the fit of a Hill function to the response of gene YOL031C illustrated in FIG. 3.
[formula] The adjustable parameters are selected independently for each cellular constituent of the drug response and for each cellular constituent of the pathway response. Preferably, the adjustable parameters are selected so that for each cellular constituent of each pathway response the sum of the squares of the distances of H(pi,l) from Ri,l(Pi,l) is minimized, and so that for each cellular constituent of the drug response the sum of the squares of the distances of H(tl) from Dk(tl) is minimized. This preferable parameter adjustment method is known in the art as a least squares fit of H( ) to Ri,k( ) or to Dk( ). Other possible model functions are based on polynomial fitting, for example by various known classes of polynomials.
Model fitting with a Hill function is illustrated with respect to FIGS. 3 and 4. As discussed, FIG. 3 illustrates an example of a pathway perturbed by methotrexate and identified by measurement. This figure illustrates the mRNA expression levels of 30 genes of the yeast S. cerevisiae that, of the approximately 6000 genes in the genome of this yeast, had the largest expression changes in response to six different exposure levels of methotrexate. FIG. 4 illustrates a fit of the pathway response of one of these gene expression levels by a Hill function. In particular, the yeast gene YOL031C was fit by a Hill function with parameters n=2, a=−0.61, and log10 (u0)=1.26 selected by the previously described least squares method.

[4] = tested on: yeast; assay: Growth of yeast under methotrexate titration; assay type: cell-based, S. cerevisiae; conditions: 100 μM titration

## C=CC[C@@H]1/C=C(\C)C[C@H](C)C[C@H](OC)[C@H]2O[C@@](O)(C(=O)C(=O)N3CCCC[C@H]3C(=O)O[C@H](/C(C)=C/[C@@H]3CC[C@@H](O)[C@H](OC)C3)[C@H](C)[C@@H](O)CC1=O)[C@H](C)C[C@@H]2OC [FK506]
[1]; ORF ARG1, deletion strain
  Log10(Ratio): 0.9516
[1]; ORF ARG4, deletion strain
  Log10(Ratio): 0.7774
[1]; ORF ARG5, 6, deletion strain
  Log10(Ratio): 0.9136
[1]; ORF ARO3, deletion strain
  Log10(Ratio): 0.6261
[1]; ORF CPA1, deletion strain
  Log10(Ratio): 0.5645
[1]; ORF CPA2, deletion strain
  Log10(Ratio): 0.645
[1]; ORF ECM13, deletion strain
  Log10(Ratio): 0.8176
[1]; ORF GRE2, deletion strain
  Log10(Ratio): 0.6836
[1]; ORF HIS3, deletion strain
  Log10(Ratio): 0.6152
[1]; ORF HIS4, deletion strain
  Log10(Ratio): 0.8178
[1]; ORF HIS5, deletion strain
  Log10(Ratio): 0.8266
[1]; ORF NCE3, deletion strain
  Log10(Ratio): 0.5112
[1]; ORF PDR5, deletion strain
  Log10(Ratio): 0.597
[1]; ORF RIB5, deletion strain
  Log10(Ratio): 0.7436
[1]; ORF SNO1, deletion strain
  Log10(Ratio): 0.7711
[1]; ORF SNQ2, deletion strain
  Log10(Ratio): 0.6624
[1]; ORF SNZ1, deletion strain
  Log10(Ratio): 0.9834
[1]; ORF YER175C, deletion strain
  Log10(Ratio): 1.0121
[1]; ORF YGL117W, deletion strain
  Log10(Ratio): 0.8608
[1]; ORF YHM1, deletion strain
  Log10(Ratio): 0.5235
[1]; ORF YMR085W, deletion strain
  Log10(Ratio): 0.7679
[1]; ORF YMR097C, deletion strain
  Log10(Ratio): 0.6945
[1]; ORF YOL150C, deletion strain
  Log10(Ratio): 0.7246
[1]; ORF YOR1, deletion strain
  Log10(Ratio): 0.5928
[1]; ORF YOR203W, deletion strain
  Log10(Ratio): 0.6378
[1]; ORF YPL088W, deletion strain
  Log10(Ratio): 0.4764
[1]; by inspection of FIG. 8B, calcineurin-deleted strain
  toxic concentration: off-target transcriptional responses of many genes reach two-fold induction or repression: approximately 12 mg/ml
[2]
  concentration at which expression of most genes affected via the primary target (calcineurin pathway) reaches two fold induction or repression: 200 ng/mL
  concentration at which expression of most off-target genes reaches two fold induction or repression: 12000 ng/mL

## CN(Cc1cnc2nc(N)nc(N)c2n1)c1ccc(C(=O)N[C@@H](CCC(=O)O)C(=O)O)cc1 [methotrexate]
[3]
  Hill function parameter a: −0.61
  Hill function parameter n: 2
[3]; exposure levels in μM
  Hill function parameter log10 (u0): 1.26
[4]
  growth defect: 50%
